The source of these data is patent US11884649B2, “IRE1α inhibitors and uses thereof” (The Regents of the University of California, priority 2020, dated 2024).

Entries after “also recorded” stand apart in the source; their conditions may differ.

For assay [1], the target named is T1, IRE1α* (Homo sapiens, UniProt O75460).
T1 construct: human IRE1α (residues 547-977, IRE1α*) was expressed in SF9 insect cells; His6 (N); made in house; host or cells: Sf9 insect cells (Bac-to-Bac baculovirus)
The assay is described as follows: In vitro Kdimer assay (dimerization affinity from RNase activity). The class given is biochemical. As to conditions: 50 μM inhibitor. The text has this: In order to better understand how to achieve an optimal intermediate RNase activation state through engagement of IRE1α's kinase domain, we first established a quantitative in vitro framework for characterizing how ATP-binding site occupancy influences RNase activity. […] This dimeric state-commonly referred to as the “back-to-back” dimer—is characterized by an extensive interface between the kinase and RNase domains of each IRE1α protomer; this dimeric state can be promoted through mass action as IRE1α concentration is raised. […] Furthermore, ligands that occupy the ATP-binding site of the kinase domain can also stimulate IRE1α's RNase activity by promoting dimer formation. We measured the ability of a purified, recombinant kinase/RNase domain construct of IRE1α—called IRE1α*—to cleave a FRET-quenched XBP1 RNA mini-substrate as a function of IRE1α* concentration, in order to provide a quantitative metric of IRE1α's dimer affinity (Kdimer) (FIG. 1B).
IRE1α* or dPIRE1α* was titrated from either 2 μM or 4 μM in two-fold serial dilutions in assay buffer (20 mM Tris, 50 mM sodium chloride, 1 mM MgCl2, 2 mM DTT, 0.05% Triton X-100 (v/v), pH 7.5) and incubated with 50 μM inhibitor for 30 minutes at room temperature. Assays were initiated by adding 10 μL of XBP1-mini substrate (5′-Alex647-CAUGUCCGCAGCGCAUG-IowaBlack-FQ-3′ (SEQ ID NO:1); IDT) to the wells at a final concentration of 6 μM and a final well volume of 30 μL. Fluorescence was detected on a Perkin Elmer Envision Microplate Reader at excitation and emission wavelengths of 650 nm and 665 nm. Reaction process was monitored real time in 10-second intervals for at least 30 minutes. Initial rates of XBP1-cleavage were determined for each respective IRE1α* of dpIRE1α* concentration. Specific activity was then determined by dividing rate (RFU/s) by the respective IRE1α* of dpIRE1α* used (RFU/s*[IRE1α]). Kdimer values were determined by fitting these values using the non-linear regression ‘one-site total’ binding parameter in GraphPad Prism analysis software.

In assay [2] the target is T2, dpIRE1α* (Homo sapiens, UniProt O75460).
T2 construct: human IRE1α (residues 547-977, IRE1α*) was expressed in SF9 insect cells; His6 (N); made in house; host or cells: Sf9 insect cells, then λ-PPase treatment
T2 sequence (O75460 547-977): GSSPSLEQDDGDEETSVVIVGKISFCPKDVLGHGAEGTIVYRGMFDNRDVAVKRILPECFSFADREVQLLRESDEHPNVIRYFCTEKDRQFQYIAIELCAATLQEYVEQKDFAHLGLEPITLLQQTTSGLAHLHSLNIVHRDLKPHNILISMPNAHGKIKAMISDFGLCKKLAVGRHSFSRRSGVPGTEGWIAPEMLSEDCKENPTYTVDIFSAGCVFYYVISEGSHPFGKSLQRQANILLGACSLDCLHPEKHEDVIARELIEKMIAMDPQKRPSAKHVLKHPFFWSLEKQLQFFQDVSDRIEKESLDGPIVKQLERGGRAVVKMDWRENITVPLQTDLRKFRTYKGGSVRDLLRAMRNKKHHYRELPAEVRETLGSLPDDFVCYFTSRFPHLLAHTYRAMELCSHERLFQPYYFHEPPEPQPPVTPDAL
The assay is described as follows: In vitro Kdimer assay with dephosphorylated construct. The conditions noted are these: 50 μM inhibitor. It counts as biochemical. The source says:
In order to better understand how to achieve an optimal intermediate RNase activation state through engagement of IRE1α's kinase domain, we first established a quantitative in vitro framework for characterizing how ATP-binding site occupancy influences RNase activity. […] This dimeric state-commonly referred to as the “back-to-back” dimer—is characterized by an extensive interface between the kinase and RNase domains of each IRE1α protomer; this dimeric state can be promoted through mass action as IRE1α concentration is raised. […] Furthermore, ligands that occupy the ATP-binding site of the kinase domain can also stimulate IRE1α's RNase activity by promoting dimer formation. We measured the ability of a purified, recombinant kinase/RNase domain construct of IRE1α—called IRE1α*—to cleave a FRET-quenched XBP1 RNA mini-substrate as a function of IRE1α* concentration, in order to provide a quantitative metric of IRE1α's dimer affinity (Kdimer) (FIG. 1B). […]
IRE1α* or dPIRE1α* was titrated from either 2 μM or 4 μM in two-fold serial dilutions in assay buffer (20 mM Tris, 50 mM sodium chloride, 1 mM MgCl2, 2 mM DTT, 0.05% Triton X-100 (v/v), pH 7.5) and incubated with 50 μM inhibitor for 30 minutes at room temperature. […] Fluorescence was detected on a Perkin Elmer Envision Microplate Reader at excitation and emission wavelengths of 650 nm and 665 nm. […]

Assay [3] has as its system XBP1 mRNA splicing. The assay is described as follows: XBP1 splicing in ER-stressed INS-1 cells. It counts as cell-based, rat. The conditions noted are these: brefeldin A (BFA) or thapsigargin (Tg). Here is the method: RNA Isolation, Quantitative Real-Time PCR, and Primers
INS-1 or isogenic IRE1α-overexpressing INS-1 cells were plated onto Poly-D-Lysine coated tissue culture plate and grown for 48 hrs. Inhibitors or DMSO were added to the media and incubated for 1 hour at 37° C. with 5% CO2 prior to addition of ER stress agents or Dox as indicated. RNA was isolated from whole cells using either QIAGEN RNeasy Mini kits or Trizol (Invitrogen) and reverse transcribed as above to obtain total cDNA. Then, XBP-1 primers were used to amplify an XBP-1 amplicon spanning the 26 nt intron from the cDNA samples in a regular 3-step PCR. Thermal cycles were: 5 min at 95° C., 30 cycles of 30 s at 95° C., 30 s at 60° C., and 1 min at 72° C., followed by 72° C. for 15 min, and hold at 4° C. Primers used for XBP-1 mRNA splicing were as follows: sense primer XBP1.3 S (5′ […]-3′ (SEQ ID NO:2)) and antisense primer XBP1.2AS (5′-[…]-3′ (SEQ ID NO:3)). PCR fragments were then digested by PstI, resolved on 3% agarose gels, stained with EtBr and quantified by densitometry using ImageJ (NIH). For standard mRNA detection, generally […] total RNA was reverse transcribed using the QuantiTect Reverse Transcription Kit (QIAGEN). For qPCR, we used SYBR green (QIAGEN) and StepOnePlus Real-Time PCR System (Applied Biosystems). Thermal cycles were: 5 min at 95° C., 40 cycles of 15 sec at 95° C., 30 sec at 60° C. […]

The test system of assay [4] is mouse splenocytes. The assay is described as follows: LPS-induced differentiation of mouse splenocytes into plasma cells (flow cytometry, IgM ELISA). The class given is cell-based. As to conditions: 1 μg/mL LPS, three days, 20 μM-1.25 μM. Here is the method: Therefore, we sought to compare the sensitivity of this process to both KIRAs and PAIRs. To this end, we assessed how KIRA8, KIRA9, and PAIR1 affected the differentiation of lipopolysaccharide (LPS)-treated mouse splenocytes into antibody-secreting plasma cells. Total live number of CD19+ B-cells were assessed and plasma cells were quantified on the basis of B220 downregulation and CD138 expression by flow cytometry (FIGS. 6A-6C, FIG. 24). Concomitantly, secreted IgM was measured in the cell culture supernatants by ELISA (FIG. 6C).
Splenocyte Isolation and Differentiation
Red blood cells were lysed with ammonium chloride potassium buffer. Splenocytes were plated at 2.5×10^5 cells/well in a 96-well round bottom plate in complete media. The splenocytes were treated with or without 1 μg/ml LPS 026:b6 (Sigma). […] The splenocytes were incubated for three days in a 37° C., 5% CO2 humidified chamber before collection and staining for flow cytometry.
Cells from the plasma cell assay were collected in a 96-well plate and washed with PBS followed by staining with LIVE/DEAD Fixable Near-IR Dead Cell Stain kit (Invitrogen). Reagent was reconstituted as per manufacturer's instructions, diluted 1:1000 in PBS, and cells were stained in 100 μL on ice for 20 minutes. The cells were then washed with FACS buffer, PBS (Corning), 2 mM EDTA and 2% heat inactivated fetal bovine serum (Omega Scientific). The cells were then stained with 50 μL antibody cocktail consisting of anti-CD19 (BioLegend), anti-CD45R (BD Pharmingen), and anti-CD138 (BioLegend) in FACS buffer on ice for 15 minutes. Cells were resuspended in FACS buffer and combined with an equal volume of 4% paraformaldehyde with 5000 Countbright Absolute Counting Beads (Thermofisher). Stained cells were analyzed on a Fortessa (Becton Dickinson). Data analysis was performed using FlowJo (v10) software (Treestar Inc.).
Media supernatants from the in vitro plasma cell differentiation assay were measured for secreted IgM by ELISA. […] Wash buffer (PBS with 0.05% Tween-20 (v/v)) was used for all washing steps and blocked with PBS-BB (PBS without Ca^2+/Mg^2+, 1% BSA (w/v), 0.05% Tween-20 (v/v)). Supernatants from LPS stimulated samples were diluted (1:100) and media only samples were diluted (1:10) in PBS-BB. […] ELISA plates were developed with TMB (Sigma) and stopped with 1N sulfuric acid. Absorbance was measured at 450 nm using spectrophotometer (Spectramax M5, Molecular Devices). Sample IgM concentration values were calculated with SoftMaxPro software.

Assay [5] concerns the target T1, IRE1α*. The experiment in a line: In vitro kinase activity assay (IRE1α kinase inhibition). The class given is biochemical. Here is the method:
A construct containing the cytosolic kinase and RNase domains of human IRE1α (residues 547-977, IRE1α*) was expressed in SF9 insect cells by using the Bac-to-Bac baculovirus expression system (Invitrogen) with a His6 tag at the N-terminus and purified with a nickel-nitriloacetic acid (Qiagen) column. To generate dP-IRE1α*, we removed basal phosphorylation sites by incubating IRE1α* with λ-PPase (New England Biolabs) at a molar ratio of 5:1 (IRE1α*: λ-PPase) in 50 mM HEPES pH 7.5, 100 mM NaCl, 1 mM MnCl2, 2 mM dithiothreitol (DTT) and 0.01% Brij 35 detergent (v/v) overnight at 4° C. Dephosphorylation was verified through western blotting using a universal phospho-protein detection agent (biotin-pIMAGO (Tymora Analytical Operations, Cat. No.: FL800) and imaged using a streptavidin-linked fluorophore.
In Vitro Kinase Activity Assay
Inhibitors (initial concentration of 10 or 60 μM, three-fold serial dilutions) were incubated with IRE1α* in cleavage buffer (20 mM HEPES, 0.05% Triton X-100 (v/v), 50 mM KCl, 1 mM MgCl2, 1 mM DTT, pH 7.5) for 30 min, followed by incubation with 10 μCi [γ^32P] ATP (3,000 Ci mmol^−1, PerkinElmer) at 23° C. for 3 hours. Samples were then spotted onto glass fiber paper (Easytab-C Glass Fiber Filter Paper, Perkin Elmer) and washed in twice with 0.5% phosphoric acid and autoradiographed using a GE Typhoon FLA 9000 Imager. Blots were quantitated using ImageQuant software. The percent inhibition was quantified by setting the background (no kinase well) as 0 and standardizing to IRE1α* without compound treatment (IRE1α*+DMSO). Dose-response curves were fit using “one-site fit log IC50” parameter using GraphPad Prism analysis software.
Compound Characterization (IC50 IRE1α Kinase Inhibition)

The target of assay [6] is T1, IRE1α*. The experiment in a line: In vitro RNase activity assay, XBP1-mini substrate cleavage, inhibitor titrations. The class given is biochemical. The conditions noted are these: relative to apo IRE1α*. The protocol:
In Vitro RNase Activity Assay Inhibitor Titrations
50 nM IRE1α* was incubated with inhibitor (initial concentration of 10 or 60 μM, three-fold serial dilutions) or DMSO for 30 min in assay buffer (20 mM Tris, 50 mM NaCl, 1 mM MgCl2, 2 mM DTT, 0.05% Triton X-100 (v/v), pH 7.5). Assays were initiated by adding 10 μL of XBP1-mini substrate (5′-Alex647-CAUGUCCGCAGCGCAUG-IowaBlack-FQ-3′ (SEQ ID NO: 1); IDT) to the wells at a final concentration of 200 nM and a final well volume of 30 μL. Fluorescence was detected on a Perkin Elmer Envision Microplate Reader at excitation and emission wavelengths of 650 nm and 665 nm. Dose-response curves were fit using “one-site fit log IC50” parameter using GraphPad Prism analysis software.

T1 sequence (O75460 547-977): as above

`NC(=O)Nc1cc(-c2cccc(F)c2)sc1C(=O)N[C@H]1CCCNC1` [AZD7762]: in assay [1], the “dimerization affinity of IRE1α* / formation of RNase active dimers” value was “promotes the formation of the RNase active dimer of IRE1α*”. In addition, the “formation of the RNase active dimer of dpIRE1α*” value in assay [2] is “promotes the formation of the RNase active dimer of dpIRE1α*”.

As for `Cc1ccc2c(NS(=O)(=O)c3ccccc3Cl)cccc2c1Oc1ncccc1-c1ccnc(N[C@H]2CCCNC2)n1` [KIRA8, reference compound], the “dimerization affinity of IRE1α* / formation of RNase active dimers” value in assay [1] is given as “unable to form RNase active dimers at any concentration tested”. The “spliced XBP1” value in assay [3] was “completely suppresses XBP1 splicing; also recorded: almost completely suppressed”. In assay [4], the IgM secretion result was “reductions in both plasma cell differentiation and IgM secretion in a dose-dependent manner”; the “plasma cell (CD138+) differentiation” value was “dose-dependently inhibits B-cell differentiation into plasma cells; also recorded: reductions in both plasma cell differentiation and IgM secretion in a dose-dependent manner”.

Regarding `N[C@H]1CC[C@H](Nc2nccc(-c3cccnc3Oc3ccc(NS(=O)(=O)CCC(F)(F)F)c(F)c3)n2)CC1` [compound 3, N-(4-(3-(2-((1r,4r)-4-aminocyclohexylamino)pyrimidin-4-yl)pyridin-2-yloxy)-2-fluorophenyl)-3,3,3-trifluoropropane-1-sulfonamide], the “dimerization affinity of IRE1α* / formation of RNase active dimers” value in assay [1] is listed as “completely suppressed the formation of RNase active dimers”. Further, in assay [5], the “kinase activity of IRE1α* / ATP-binding site occupancy (in words)” value is “dose-dependently inhibited”. Moreover, the “RNase activity of IRE1α* (in words)” value in assay [6] is reported as “dose-dependently inhibited”.
